Consider 31 compounds from patent publication US9688630B2, “3,3′-disubstituted indolines as inhibitors of cholesterol ester transfer protein” (Merck Sharp & Dohme Corp., priority 2013, dated 2017).

The target of one assay is T1, recombinant CETP (Homo sapiens, UniProt P11597).
T1 sequence (P11597 18-493): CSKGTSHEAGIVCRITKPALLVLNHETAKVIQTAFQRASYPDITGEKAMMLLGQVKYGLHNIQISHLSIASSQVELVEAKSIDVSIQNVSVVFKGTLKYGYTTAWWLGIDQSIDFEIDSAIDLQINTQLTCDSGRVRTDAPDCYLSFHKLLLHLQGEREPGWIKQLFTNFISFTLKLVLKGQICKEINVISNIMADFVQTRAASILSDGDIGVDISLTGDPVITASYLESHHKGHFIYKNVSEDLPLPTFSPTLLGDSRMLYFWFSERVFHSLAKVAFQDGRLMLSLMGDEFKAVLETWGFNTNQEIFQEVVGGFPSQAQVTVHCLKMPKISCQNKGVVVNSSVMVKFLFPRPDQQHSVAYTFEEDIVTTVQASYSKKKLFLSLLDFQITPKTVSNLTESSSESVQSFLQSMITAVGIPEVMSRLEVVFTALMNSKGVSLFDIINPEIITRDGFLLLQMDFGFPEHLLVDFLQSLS
The experiment in a line: RTA assay using recombinant CETP (2% RTA). The assay is classed as biochemical. The conditions noted are these: 2% human serum. On the procedure:
(§1) In Vitro Radioactive Assays of CETP-Catalyzed CE and TG Transfer (RTA Assay)
(§2) Reagents and sources are: [3H] cholesteryl oleate (GE #TRK.886), [3H] Triolein (Perkin-Elmer NET-431), Butylated hydroxyl toluene (Aldrich, #D4740-4), DOPC (Sigma, #P6354), Sodium Bromide (Fisher scientific #S255-500), PEG 8000 (Fisher, #BP233-1), and human HDL (Intracel Corp #RP-036).
(§3) An in vitro assay for determining IC50's to identify compounds that inhibit CETP transfer activity is performed based on a modification of a published method (Morton and Zilversmit, (1981) A plasma inhibitor of triglyceride and cholesteryl ester transfer activities, J. Biol. Chem. 256(23), 11992-11995). The ability of inhibitors to alter CETP activity is performed using two different assays: one using recombinant CETP and one using an endogenous plasma source of CETP. Both assays measure the transfer of [3H] cholesteryl oleate or [3H] triolein from exogenous LDL to HDL.
(§4) Radiolabeled donor particles are generated by first combining 100 μl of 200 μM butylated hydroxyl toluene in CHCl3, 216 μL of 21.57 mM DOPC in EtOH, and either 500 μCi [3H]-triolein (Perkin Elmer #NET-431) or 500 μCi [3H]-cholesteryl oleate (GE #TRK886) in a glass tube. Reagents are mixed, dried under nitrogen, and then resuspended in 2 mL of 50 mM Tris, 27 μM EDTA at pH 7.4. After a brief vortex, the solution is sonicated until clear and mixed with 20 mL of fresh human serum. The mixture is incubated overnight at 37° C. The [3H] labeled LDL substrate is separated at 1.063 g/ml density by sequential ultracentrifugal flotation in NaBr according to the method of Havel, Eder, et al., 1955, and Chapman, Goldstein, et al., 1981. Once isolated the particles are dialyzed 3× in CETP buffer (50 mM Tris, pH 7.4, 100 mM NaCl, 1 mM EDTA). Human HDL is purchased from Intracel and used as the acceptor particles.
(§5) Transfer assays are performed in a 96-well v-bottom polypropylene plate. For the RTA using recombinant CETP (2% RTA), an assay cocktail is prepared with the final concentrations 128 μg/mL HDL, 20 nM rCETP, 2% human serum, and 1×CETP buffer. 1 μL of each test compound diluted in DMSO is added to 47 μL of assay cocktail per well and incubated at 37° C. for 1 hour. To initiate the transfer reaction, 2 μL radiolabeled LDL is added. After an additional 60 min of incubation at 37° C., the transfer action is terminated by precipitation of LDL with an equal volume of 20% W/V PEG 8000. The plates are centrifuged at 2000 rpm for 30 minutes at 4° C. A 40 μL aliquot of the HDL-containing supernatant is transferred to a Packard Optiplate™ with 200 μL of MicroScint™ 20. After mixing, plates are counted by liquid scintillation. Counts present in the supernatant for blanks (wells containing only HDL acceptor, CETP buffer and DMSO) are subtracted from those containing test compounds and used to correct for non-specific transfer.
(§6) Comparison of the counts of samples with inhibitors to an uninhibited (DMSO only) positive control yield a percent inhibition. A plot of percent inhibition vs. log of inhibitor concentration, fit to a Sigmoidal 4 parameter equation is used to calculate IC50.

Assay [1] concerns the target T2, endogenous CETP from human serum (Homo sapiens, UniProt P11597).
T2 construct: yielding a concentration of approximately 15 nM endogenous CETP in the assay; from tissue; host or cells: human serum
T2 sequence (P11597 18-493): T1 sequence (P11597 18-493)
The experiment in a line: RTA assay using endogenous CETP from serum (95% RTA). Format: biochemical. The conditions noted are these: 95% human serum. On the procedure:
as §1, §2, §3, §4, §5
For the transfer assay using endogenous CETP from serum (95% RTA), the same procedure is used except that human serum is added such that a final concentration of serum of 95% of the total assay volume is achieved, yielding a concentration of approximately 15 nM endogenous CETP in the assay. This is then combined with HDL and CETP buffer and the reaction proceeds as above and is terminated as described.
as §6

As a reminder, the IC50 is the midpoint of a concentration-inhibition curve. As for `C[C@H]1CN(c2cccc(CC3(c4cccc(OC(F)(F)F)c4)CN(C[C@@H](O)C(F)(F)F)c4ccccc43)c2)CCO1` (stereo partly shown) [Example 50], the IC50 on recombinant CETP came out at 474 nM; in assay [1], 4930 nM.
On the same counts, the results for `CCOc1cc(C2(Cc3cccc(OC)c3)CN(C[C@@H](O)C(F)(F)F)c3ccccc32)ccn1` (stereo partly shown) [Example 23] are 249 nM and 681 nM.
`O[C@H](CN1CC(Cc2cccc(OC(F)(F)F)c2)(c2cccc(Cl)c2)c2ccccc21)C(F)(F)F` (mixture of isomers) [Example 4, (2R)-3-(3-(3-chlorophenyl)-3-(3-(trifluoromethoxy)benzyl)indolin-1-yl)-1,1,1-trifluoropropan-2-ol]: the IC50 on recombinant CETP is 466 nM; in assay [1] it was 1380 nM.
The corresponding values for `O[C@H](CN1CC(Cc2cccc(N3CC(F)C3)c2)(c2cccc(OC(F)(F)F)c2)c2ccccc21)C(F)(F)F` (stereo partly shown) [Example 52] are 447 nM and 5840 nM.
The corresponding values for `O[C@H](CN1CC(Cc2cccc(OC(F)(F)F)c2)(c2cccc(N3CC[C@@H](F)C3)c2)c2ccccc21)C(F)(F)F` (stereo partly shown) [Example 42] are 40 nM and 766 nM.
As for `Cc1ccc(C2(Cc3cccc(OC(F)(F)F)c3)CN(C[C@@H](O)C(F)(F)F)c3ccccc32)cc1Cl` (stereo partly shown) [Example 18], the concentration for half-maximal inhibition (IC50) at recombinant CETP turned out to be 161 nM; in assay [1] it was 1350 nM.
With `C[C@H]1CN(c2cccc(C3(Cc4cccc(OC(F)(F)F)c4)CN(C[C@@H](O)C(F)(F)F)c4ccccc43)c2)CCO1` (stereo partly shown) [Example 38], the figures for the half-inhibitory concentration (IC50) (at recombinant CETP; in assay [1]) were 117 nM and 674 nM, respectively.
As to `O[C@H](CN1CC(Cc2cccc(OC(F)(F)F)c2)(c2cccc(N3CCC(F)(F)C3)c2)c2ccccc21)C(F)(F)F` (stereo partly shown) [Example 35], the 50% inhibitory concentration (IC50) on recombinant CETP is 98 nM; in assay [1] it was 533 nM.
Consider `O[C@H](CN1CC(Cc2cccc(N3CCCC(F)(F)C3)c2)(c2cccc(OC(F)(F)F)c2)c2ccccc21)C(F)(F)F` (stereo partly shown) [Example 59], for which the figures for the 50% inhibitory concentration (IC50) (on recombinant CETP; in assay [1]) were 198 nM and 1420 nM, respectively.
On the same counts, the results for `O[C@H](CN1CC(Cc2cccc(OC(F)(F)F)c2)(c2cccc(N[C@@H]3CCOC3)c2)c2ccccc21)C(F)(F)F` (mixture of isomers) [Example 32] are 252 nM and 1430 nM.
As for `O[C@H](CN1CC(Cc2cccc(OC(F)(F)F)c2)(c2ccnc(N3CCOCC3)c2)c2ccccc21)C(F)(F)F` (stereo partly shown) [Example 24], the 50% inhibitory concentration (IC50) on recombinant CETP was 244 nM; in assay [1] it was 3120 nM.
For `Cc1cc(C(=O)O)ccc1-c1cccc(C2(Cc3cccc(OC(F)(F)F)c3)CN(C[C@@H](O)C(F)(F)F)c3ccccc32)c1` (stereo partly shown) [Example 27], the IC50 at recombinant CETP is 378 nM; in assay [1], 4070 nM.
For `O[C@H](CN1CC(Cc2cccc(N3CC4(COC4)C3)c2)(c2cccc(OC(F)(F)F)c2)c2ccccc21)C(F)(F)F` (stereo partly shown) [Example 55], the IC50 at recombinant CETP stood at 98 nM; in assay [1] it was 533 nM.
The corresponding values for `C[C@@H]1CN(c2cccc(CC3(c4cccc(OC(F)(F)F)c4)CN(C[C@@H](O)C(F)(F)F)c4ccccc43)c2)CCO1` (stereo partly shown) [Example 51] are 1610 nM and 1720 nM.
Take `Cc1ccc(C2(Cc3cccc(OC(F)(F)F)c3)CN(C[C@@H](O)C(F)(F)F)c3ccccc32)cc1-c1ccc(C(=O)O)cc1` (stereo partly shown) [Example 28]: the IC50 on recombinant CETP is 1510 nM.
For the compound `O[C@H](CN1CC(Cc2cccc(N3CC[C@@H](F)C3)c2)(c2cccc(OC(F)(F)F)c2)c2ccccc21)C(F)(F)F` (stereo partly shown) [Example 58], the IC50 at recombinant CETP was determined as 171 nM; in assay [1] it was 1410 nM.
On the same counts, the results for `CO[C@@H]1CCN(c2cccc(C3(Cc4cccc(OC(F)(F)F)c4)CN(C[C@@H](O)C(F)(F)F)c4ccccc43)c2)C1` (stereo partly shown) [Example 36] are 115 nM and 780 nM.
On to `O[C@H](CN1CC(Cc2ccc(F)cn2)(c2cccc(OC(F)(F)F)c2)c2cccc(F)c21)C(F)(F)F` (stereo partly shown) [Example 15], for which the IC50 on recombinant CETP came out at 2860 nM.
The compound `O[C@H](CN1CC(Cc2cccc(OC(F)(F)F)c2)(c2cccc(OC(F)(F)F)c2)c2ccccc21)C(F)(F)F` (stereo partly shown) [Example 10] showed a concentration for half-maximal inhibition (IC50) in assay [1] of 69 nM.
Same read-out and setting: the value for `O[C@H](CN1CC(Cc2cccc(OC(F)(F)F)c2)(c2cccc(OC(F)(F)F)c2)c2cc(F)ccc21)C(F)(F)F` (stereo partly shown) [Example 6] was 763 nM.
Take `O[C@H](CN1CC(Cc2cccc(OC(F)(F)F)c2)(c2ccnc(C(F)(F)F)c2)c2ccccc21)C(F)(F)F` (stereo partly shown) [Example 20]: the IC50 on recombinant CETP was 447 nM; in assay [1] it was 2600 nM.
On to `CC(C)Oc1cc(C2(Cc3cccc(OC(F)(F)F)c3)CN(C[C@@H](O)C(F)(F)F)c3ccccc32)ccn1` (stereo partly shown) [Example 22], for which the half-maximal inhibitory concentration (IC50) came out at 43 nM at recombinant CETP and 101 nM in assay [1].
On the same counts, the results for `O[C@H](CN1CC(Cc2cccc(N3CCC(F)(F)C3)c2)(c2cccc(OC(F)(F)F)c2)c2ccccc21)C(F)(F)F` (stereo partly shown) [Example 54] are 510 nM and 3650 nM.
On the same counts, the results for `CC1(O)CN(c2cccc(C3(Cc4cccc(OC(F)(F)F)c4)CN(C[C@@H](O)C(F)(F)F)c4ccccc43)c2)C1` (stereo partly shown) [Example 33] are 1230 nM and 4380 nM.
On the same counts, the results for `COc1cccc(-c2cccc(C3(Cc4cccc(OC(F)(F)F)c4)CN(C[C@@H](O)C(F)(F)F)c4ccccc43)c2)c1` (mixture of isomers) [Example 25, (2R)-1,1,1-trifluoro-3-(3-(3′-methoxy-[1,1′-biphenyl]-3-yl)-3-(3-(trifluoromethoxy)benzyl)indolin-1-yl)propan-2-ol] are 1470 nM and 3130 nM.
As to `O[C@H](CN1CC(Cc2cccc(N3CCC(F)(F)CC3)c2)(c2cccc(OC(F)(F)F)c2)c2ccccc21)C(F)(F)F` (stereo partly shown) [Example 56], the IC50 on recombinant CETP stood at 413 nM; in assay [1] it was 6940 nM.
In the case of `COc1ccc(CC2(c3cccc(OC(F)(F)F)c3)CN(C[C@@H](O)C(F)(F)F)c3ccccc32)cc1` (stereo partly shown) [Example 5], the half-inhibitory concentration (IC50) at recombinant CETP was determined as 2150 nM; in assay [1], 9680 nM.
The corresponding values for `O[C@H](CN1CC(Cc2cccc(OC(F)(F)F)c2)(c2cccc(OC(F)(F)C(F)F)c2)c2ccccc21)C(F)(F)F` (stereo partly shown) [Example 8] are 25 nM and 94 nM.
Take `Cc1cc(C(=O)O)ccc1-c1cc(C2(Cc3cccc(OC(F)(F)F)c3)CN(C[C@@H](O)C(F)(F)F)c3ccccc32)ccc1F` (stereo partly shown) [Example 30]: the 50% inhibitory concentration (IC50) at recombinant CETP worked out at 328 nM.
In the case of `O[C@H](CN1CC(Cc2cccc(OC(F)(F)F)c2)(c2ccc(OC(F)(F)F)cc2)c2ccccc21)C(F)(F)F` (stereo partly shown) [Example 7], in assay [1], the IC50 was 232 nM.
Take `Cc1cc(C(=O)O)ccc1-c1cc(C2(Cc3cccc(OC(F)(F)F)c3)CN(C[C@@H](O)C(F)(F)F)c3ccccc32)ccc1C` (stereo partly shown) [Example 29]: the IC50 at recombinant CETP worked out at 1690 nM.
